Laboratory results as given in US4956389A, “Compounds having calcium blocking activity” (priority 1982, dated 1990).
Several values for one entry are separate records, joined by “and”; a condition that tells them apart may be missing. Equal entries are not always repeated. Where two headings read alike, the source gives them in different places.

Columns and labels:
[1] = Acute toxicity (Litchfield and Wilcoxon); settings: rat, in vivo, male rats, read-out: toxicity DL50
Description: The acute toxicity has been determined by the oral route, by the venous route in male rats according to the method of Litchfield and Wilcoxon (J. Pharm. Exp. Therap., (1949), 96, p. 99).

[2] = tested on: mitochondria of liver of rats; experiment: Inhibition of Ca2+-uptake in mitochondria of liver of rats; format: biochemical, rat; settings: 250 μM
Procedure: The mitochondria prepared according to classical methods are diluted to a concentration of 1.5 mg/cc in a medium of incubation which has the following composition:
After a period of 15 minutes of preincubation at 20° C. there was added ^45 CaCl2 (50 n mol/mg prot.).
In a manner analogous to the preceding experiments, the concentrations determined after two minutes were called the concentration at 0 period of time. The other controls were determined after 5 minutes, after 10 minutes and after 15 minutes. For the determination of Ca^2+, the experiment was carried out in a manner analogous to the preceding experiments.
The results are reported in Table 3 as the quantity of Ca transferred per mg of protein

[3] = tested on: rats; experiment: Anti-arrythmic and antiischemic effect in rats (left coronary artery tied); format: in vivo, rat
Procedure: The left coronary artery, when it is tied, induces in the anesthetized rats a precocious arrythmia (30 minutes) particularly ectopic beats, ventricular tachycardia (VT), ventricular fibrillation (VF) according to the methods of Selye 1960, Clark 1980 and Parratt 1982.

[4] = tested on: portions of the aorta; experiment: Contraction of aorta portions by arachidonic acid after oral administration to rabbits (studies in vivo); parameters: species or system rabbit
Procedure: Both substances YS 035 and Nicardipine have been administered orally for a period of three consecutive days to rabbits in such a manner that the last administration of each substance was carried out one hour prior to killing the animals. The portions of the aorta had then been incubated either in PRP as well as in the Krebs-Henseleit liquid.

[5] = tested on: dogs; experiment: Effect on the myocardial infarct in the subacute phase in dogs (method of Harris); format: in vivo, dog; settings: 0.1 mg/kg intravenously, three times within 48 hours
Procedure: The tying up of the […] coronary artery by the method of Harris causes the following effects:
The treatment with YS 035 in the dose of 0.1 mg/kg intravenously, carried after tying the coronary artery and three times within 48 hours in the same dose has provided the following results: […]

[6] = tested on: rats; experiment: Antagonistic effect to biochemical disturbances during the post-oligemic period in rats; format: in vivo, rat
Procedure: Oligemia in rats is caused by simultaneous bilateral occlusion of the carotid arteries associated with a slight decrease (8-9 kPa) of blood pressure and is maintained for 60 minutes. After removal of the occlusion, the post-oligemic period is followed for several days. In this case, the observation is continued up to the third day, at the time during which the brain accumulation of Ca^++ ions reaches the maximum.
The substances YS 035 or Nicardipine respectively, are administered to rats, 1, 5, 18, 24, 42 and 71 hours after having removed the carotid occlusion. The rats are sacrificed after 72 hours and the tissues are rapidly removed in order to determine their content of water, calcium and potassium.

[7] = tested on: rats; experiment: Effect on the multiple cerebral infarct in rats (intracarotid sodium arachidonate); format: in vivo, rat; settings: 15 minutes prior to the infarct
Procedure: The intracarotid injection of sodium arachidonate (0.1 mg) causes in rats an edema reaction accompanied by an accumulation of calcium in the brain tissue and a decrease, on the other hand, of the cholesterol level.

[8] = tested on: kidney cells in newborn hamsters; experiment: Inhibition of Ca2+-uptake in kidney cells in newborn hamsters; format: cell-based, hamster
Procedure: Cells of kidneys of newborn hamsters have been washed and then resuspended several times in concentration of 5·10^6 /cc in the medium of the following composition:
After 15 minutes of preincubation at 30° C., the reaction was made to begin by addition to the medium of ^45 CaCl2 1 mM (0.1μCi/cc). The concentrations at 0 period of time were the concentrations determined two minutes after the addition. The other controls were carried out after 5 minutes, 10 minutes, and 20 minutes. The determination of [Ca^2+ ] was carried out as in the preceding experiment.

COc1ccc(CCN(C)CCc2ccc(OC)c(OC)c2)cc1OC [YS 035, N-methyl-N-bis-(3,4-dimethoxy-phenyl-ethyl)amine]
LD50 ([1]; iv, venous route): 19 mg/kg
LD50 ([1]; oral route): 178 mg/kg
Ca2+-uptake ([2]; 20° C., control 14.3): 11.0 n g ions/mg prot.
inhibitory activity on the uptake of Ca (in words) ([2]; compared with nifedipine): slightly inferior to the activity of nifedipine
% Death ([3]; 0.156 mg/Kg I.V.): 20%
Latent Time Death ([3]; 0.156 mg/Kg I.V.): 26 min
Latent time ([3]; 0.156 mg/Kg I.V.): 22
No. ectopic beats ([3]; 0.156 mg/Kg I.V.): 907
VF ([3]; 0.156 mg/Kg I.V.): 4 s
VF (%) ([3]; 0.156 mg/Kg I.V.): 40%
VT ([3]; 0.156 mg/Kg I.V.): 34 s
% Death ([3]; 0.625 mg/Kg I.V.): 0%
Latent Time Death ([3]; 0.625 mg/Kg I.V.): > 30 min
Latent time ([3]; 0.625 mg/Kg I.V.): 30
No. ectopic beats ([3]; 0.625 mg/Kg I.V.): 646
VF ([3]; 0.625 mg/Kg I.V.): 0 s
VF (%) ([3]; 0.625 mg/Kg I.V.): 0%
VT ([3]; 0.625 mg/Kg I.V.): 9 s
% Death ([3]; 1.25 mg/Kg I.V.): 0%
Latent Time Death ([3]; 1.25 mg/Kg I.V.): > 30 min
Latent time ([3]; 1.25 mg/Kg I.V.): 30
No. ectopic beats ([3]; 1.25 mg/Kg I.V.): 684
VF ([3]; 1.25 mg/Kg I.V.): 0 s
VF (%) ([3]; 1.25 mg/Kg I.V.): 0%
VT ([3]; 1.25 mg/Kg I.V.): 29 s
% Death ([3]; 2.5 mg/Kg I.V.): 0%
Latent Time Death ([3]; 2.5 mg/Kg I.V.): > 30 min
Latent time ([3]; 2.5 mg/Kg I.V.): 26
No. ectopic beats ([3]; 2.5 mg/Kg I.V.): 725
VF ([3]; 2.5 mg/Kg I.V.): 9 s
VF (%) ([3]; 2.5 mg/Kg I.V.): 20%
VT ([3]; 2.5 mg/Kg I.V.): 34 s
% Death ([3]; 5 mg/Kg I.V.): 0%
Latent Time Death ([3]; 5 mg/Kg I.V.): > 30 min
Latent time ([3]; 5 mg/Kg I.V.): 21
No. ectopic beats ([3]; 5 mg/Kg I.V.): 1287
VF ([3]; 5 mg/Kg I.V.): 5 s
VF (%) ([3]; 5 mg/Kg I.V.): 50%
VT ([3]; 5 mg/Kg I.V.): 62 s
% Death ([3]; 10 mg/Kg I.V.): 0%
Latent Time Death ([3]; 10 mg/Kg I.V.): > 30 min
Latent time ([3]; 10 mg/Kg I.V.): 30
No. ectopic beats ([3]; 10 mg/Kg I.V.): 474
VF ([3]; 10 mg/Kg I.V.): 0 s
VF (%) ([3]; 10 mg/Kg I.V.): 0%
VT ([3]; 10 mg/Kg I.V.): 9 s
% Death ([3]; 20 mg/Kg I.V.): 0%
Latent Time Death ([3]; 20 mg/Kg I.V.): > 30 min
Latent time ([3]; 20 mg/Kg I.V.): 20
No. ectopic beats ([3]; 20 mg/Kg I.V.): 777
VF ([3]; 20 mg/Kg I.V.): 10 s
VF (%) ([3]; 20 mg/Kg I.V.): 50%
VT ([3]; 20 mg/Kg I.V.): 22 s
dose-effect relationship (in words) ([3]; above 10 mg/kg, endovenous): there is a regression of the results
onset of VF, VT and death (in words) ([3]; endovenous, between 0.625 and 10 mg/kg): prevents the onset of the most serious arrythmia such as VF and VT and the death
Amplitude of contraction, medium Krebs, individual values ([4]; 10 mg·Kg^-1 P.O., Krebs, controls 12 ± 2.3): -6 mm and +7 mm
Amplitude of contraction, PRP, individual values ([4]; 10 mg·Kg^-1 P.O., PRP, controls 30 ± 8.0): +28 mm
site of action (in words) ([4]; aortic endothelial level, particularly PGI2): act directly on the synthesis of prostaglandin
consumption of glucose in the myocardium (in words) [5]: not changed
consumption of lactate (in words) [5]: has a tendency to return to normality
consumption of oxygen (in words) [5]: increases substantially
coronary blood flow (in words) [5]: remains similar to that of the control groups, or at the most tends to increase moderately
coronary vascular resistance (in words) [5]: not only is reduced, but becomes inferior to that of the control group
index of the aortic flow (in words) [5]: not changed
index of work of the left ventricle (in words) [5]: significantly higher than that present in the dogs with the infarct
ratio DPTI/TTI (in words) [5]: not changed
uptake of the free fatty acids (in words) [5]: increases and reaches also a value twice the basal flow measured in healthy control animals
Cerebral concentration, Ca++ ([6]; 3 mg·Kg^-1 P.O. 7×, 72 h, post-oligemic controls 28.2 ± 3.22): 10.7 ± 2.46 mmol·Kg^-1 of dry substance
Cerebral concentration, H2O ([6]; 3 mg·Kg^-1 P.O. 7×, 72 h, post-oligemic controls 80.1 ± 0.37): 79.0 ± 0.44%
Cerebral concentration, K+ ([6]; 3 mg·Kg^-1 P.O. 7×, 72 h, post-oligemic controls 366.2 ± 12.58): 420.0 ± 11.85 mmol·Kg^-1 of dry substance
intracellular accumulation of Ca++ ions (in words) ([6]; rat, in vivo): reduce substantially
seriousness of the cerebral edema (in words) ([6]; rat, in vivo): capable of reducing the seriousness of the cerebral edema
entry of calcium in brain tissue (in words) ([7]; 1 mg/kg intravenously): reduces moderately the entry of calcium
other changes at the biochemical level (in words) ([7]; intravenously, 1, 3.3 and 10 mg/kg): no effect
Ca2+-uptake ([8]; 250 μM, 30° C., control 11.9): 7.5 n g ions/mg prot/15'
inhibitory action on the uptake of Ca (in words) ([8]; 250 μM, compared with nifedipine): superior to the activity of nifedipine
percent change in Ca2+-uptake versus control at 250 µM ([8]; Mesocricetus auratus, 0.25 h, 15 min): -36.9%
